In US20050256171A1, “Pyrrolidine derivatives as tryptase inhibitors” (Altana Pharma A G, priority 2002, published 2005):
Counter-ions that a name gives are not always drawn.

molecular target: human tryptase; test: Inhibition of human tryptase (apparent dissociation constant, chromogenic substrate tos-Gly-Pro-Arg-pNA); assay type: biochemical; settings: pKiapp = -log Kiapp (mol/l); in the presence of substrate; heparin 0.1-50 μg/ml
Source text: The documented pathophysiological effects of mast cell tryptase are brought about directly by the enzymatic activity of the protease. Accordingly, they are reduced or blocked by inhibitors which inhibit the enzymatic activity of tryptase. A suitable measure of the affinity of a reversible inhibitor for the target protease is the equilibrium dissociation constant Ki of the enzyme/inhibitor complex. This value of Ki can be determined via the influence of the inhibitor on the tryptase-induced cleavage of a chromogenic peptide-p-nitroanilide substrate or of a fluorogenic peptide-aminomethylcoumarin substrate.
The dissociation constants for the tryptase/inhibitor complexes are determined under equilibrium conditions in accordance with the general proposals of Bieth (Bieth J G, Pathophysiological Interpretation of kinetic constants of protease inhibitors, Bull. Europ. Physiopath. Resp. 16:183-195,1980) and the methods of Sommerhoff et al. (Sommerhoff C P et al., A Kazal-type Inhibitor of human mast cell tryptase: Isolation from the medical leech Hirudo medicinalis, characterization, and sequence analysis, Biol. Chem. Hoppe-Seyler 375: 685-694, 1994).
Human tryptase is prepared pure from lung tissue or is prepared by recombination; the specific activity of the protease which has been determined by titration is normally more than 85% of the theoretical value. Constant amounts of the tryptase are incubated in the presence of heparin (0.1-50 μg/ml) to stabilize the protease with increasing amounts of the inhibitors. After equilibrium has been reached between the reactants, the remaining enzymic activity is determined after addition of the peptide-p-nitroanilide substrate tos-Gly-Pro-Arg-pNA, whose cleavage is followed at 405 nm for 3 min. Alternatively, the remaining enzymatic activity can also be determined using fluorogenic substrates. The apparent dissociation constants Klapp (i.e. in the presence of substrate) are then found by nonlinear regression by fitting the enzyme rates to the general equation for reversible inhibitors (Morrison J F, Kinetics of the reversible inhibition of enzyme catalysed reactions by tight-binding inhibitors, Biochim. Biophys. Acta 185, 269-286, 1969): Vl/V0=1−{Et+It+Klapp−[(Et+It+Klapp)^2−4EtIt]^1/2}/2Et
In this, Vl and V0 are the rates respectively in the presence and absence of the inhibitor and Et and It are the concentrations of tryptase and of the inhibitor.
The apparent dissociation constants found for the compounds of the invention are evident from the following table A, in which the numbers of the compounds correspond to the numbers of the compounds in the examples [pKlapp=−logKlapp(mol/l)].

pKiapp	SMILES
6.57	COC(=O)Cc1cc(C#CCOC(=O)NCc2ccc(N)nc2)cc(C#CCOC(=O)NC2CC(C(=O)OC)N(C(=O)CCc3ccc(CN)cc3)C2)c1 (stereo not shown) [Compound 4, dihydrochloride]
7.19	COC(=O)Cc1cc(C#CCOC(=O)NCc2ccnc(N)c2)cc(C#CCOC(=O)NC2CC(C(=O)OC)N(C(=O)CCc3cccc(CN)c3)C2)c1 (stereo not shown) [Compound 6, dihydrochloride]
7.80	COC(=O)Cc1cc(C#CCOC(=O)NCc2ccc(N)nc2)cc(C#CCOC(=O)NC2CC(C(=O)OC)N(C(=O)CCc3cccc(CN)c3)C2)c1 (stereo not shown) [Compound 3, dihydrochloride]
6.00	COC(=O)Cc1cc(C#CCOC(=O)NCc2ccnc(N)c2)cc(C#CCOC(=O)NC2CC(C(=O)OC)N(C(=O)CCc3ccc(CN)cc3)C2)c1 (stereo not shown) [Compound 5, dihydrochloride]
